Results taken from patent publication US9376418B2, “Substituted pyridine spleen tyrosine kinase (SYK) inhibitors” (Merck Sharp & Dohme Corp., priority 2012, dated 2016).

Experiments:
PGD2 = conditions: dosed intranasally, phase I/II study, allergic rhinitis; cited from earlier work
[1] = phase II clinical trial, allergic rhinitis; cited from earlier work
[2] = biological target: T1, recombinant human GST-SYK (Homo sapiens, UniProt P43405); assay: Homogeneous Time-Resolved Fluorescence (HTRF) assay for the recombinant human Syk enzyme; assay type: biochemical; conditions: HTRF assay, recombinant human GST-SYK; IC50 given as class symbols; read-out: rhSYK Activity
T1 construct: purchased Carna Biosciences 08-176
Outline: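 GST-hSYK ([…]) was preincubated with inhibitor (0.1% DMSO) for 10 min at room temperature in Tris-HCl pH 7.5 with tween 20 and DTT. Biotinylated peptide (250 nM), Mg (5 mM) and ATP (25 μM) were added for 45 min. The reaction was quenched with EDTA, and phosphotyrosine was read by Eu-antibody/SA-APC HTRF after 30 min.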

In the case of Oc1cccc(Nc2ncc(F)c(Nc3cccc(O)c3)n2)c1 [Example R112], the “change in PGD2” value (PGD2) is listed as “statistically significant decrease”, the clinical safety (PGD2) is listed as “safe across a range of indicators” and the efficacy versus placebo [1] is listed as “lack of efficacy”.

In the case of Cc1cc(Nc2nccc(C(F)(F)F)n2)cc(-c2ccc(NC(=O)CC#N)nc2)c1 [Example 2.109, 2-cyano-N-[5-(3-methyl-5-{[4-(trifluoromethyl)pyrimidin-2-yl]amino}phenyl)pyridin-2-yl]acetamide], the IC50 [2] is reported as < 0.1 µM.

With Cc1cc(Nc2nccc(C(F)(F)F)n2)cc(-c2ccc(C(=O)NC(C)(CO)CO)nc2)c1 [Example 16.13, N-[2-hydroxy-1-(hydroxymethyl)-1-methylethyl]-5-(3-methyl-5-{[4-(trifluoromethyl)pyrimidin-2-yl]amino}phenyl)pyridine-2-carboxamide] the IC50 [2] was < 0.1 µM.

For Cc1cc(Nc2nccc(C(F)(F)F)n2)cc(-c2ccc(C(=O)N(C)CCC3OCCO3)nc2)c1 [Example 16.25, N-[2-(1,3-dioxolan-2-yl)ethyl]-N-methyl-5-(3-methyl-5-{[4-(trifluoromethyl)pyimidin-2-yl]amino}phenyl)pyridine-2-carboxamide], the IC50 [2] was 0.1 to 1 µM.

In the case of Cc1cc(Nc2nccc(C(F)(F)F)n2)cc(-c2ccc(C(=O)NC3CC3)nc2)c1 [Example 2.71, N-cyclopropyl-5-(3-methyl-5-{[4-(trifluoromethyl)pyrimidin-2-yl]amino}phenyl)pyridine-2-carboxamide], the IC50 [2] is reported as 0.1 to 1 µM.

In the case of Cc1cc(Nc2nccc(C(C)(F)F)n2)cc(-c2cccnc2)c1 [Example 20.1, 4-(1,1-Difluoroethyl)-N-[3-methyl-5-(pyridin-3-yl)phenyl]pyrimidin-2-amine], the IC50 [2] is reported as < 0.1 µM.
